Results taken from patent US9682953B2, “Amide compounds, compositions and applications thereof” (Advinus Therapeutics Limited, priority 2011, dated 2017).
Read-outs that look alike come from different tables or passages of the source.

What was measured:
[1] = target: human Fatty Acid Amide Hydrolase (FAAH) (Homo sapiens (Human), UniProt O00519); test: biochemical; conditions: for inhibition at 0.1 µM: read-out: hFAAH % inhibition at 100 nM, 100 nM (tier I)
Description: Material and Reagents: All reagents were purchased from Sigma-Aldrich unless specified. […] Chaperone protein groEL-groES in pGRO7 plasmid (Takara Bio Inc, Japan) was co-expressed with Fatty Acid Amide Hydrolase (FAAH) to improve solubility of the protein expressed in E coli. […] Briefly, the bacterial cultures in Luria Broth (2 L) were induced with arabinose (2 mM) and Isopropyl (β-D-1-thiogalactopyranoside, IPTG (1 mM), for 20 h at room temperature. The cultures were centrifuged at 1200×g for 10 min and the cell pellet was resuspended in 100 mL buffer containing of 20 mM NaPi (pH 7.4), 100 mM NaCl, Benzonase (500u), Aprotinin (1 μg/mL) and Leupeptin (1 μg/mL). Cells were lyzed by sonication (Amp 20%, Pulse 15 s×15, on ice) and the cell debris removed by centrifugation at 5000×g for 20 min. The supernatant was enriched via ultracentrifugation at 100,000×g for 1 h and the cell pellet was resuspended in 16 mL buffer containing 20 mM NaPi (pH 7.8), 500 mM NaCl, 1% Triton X-100. The resuspended cell extract was subjected to ultra-centrifugation at 100,000×g for 1 h and the enriched supernatant was used in the in vitro assay. All protein extraction steps were carried out on ice or at 4° C.
The assay was carried out in 200 μL volume in a 96-well black polystyrene plate (Greiner Bio-one, Germany). Each reaction consisted of human Fatty Acid Amide Hydrolase (FAAH) protein and 10 μM AAMCA in assay buffer containing 50 mM HEPES, 1 mM EDTA and 0.1% BSA, pH 7.4. The reaction was incubated with 2 μL of varying concentrations of inhibitor in DMSO (final concentration of DMSO 1%) with shaking for 1 min and monitored for increase in fluorescence in kinetic mode for 50 min. […] Rate of reaction as a function of the concentration of the inhibitor was used to determine the IC50 of the inhibitors. Data was analyzed using GraphPad Prism 5 (GraphPad Software Inc., San Diego, Calif.).

[2] = target: rat Fatty Acid Amide Hydrolase (FAAH) (Rattus norvegicus (Rat), UniProt P97612); test: FAAH in vitro fluorescence assay (AAMCA hydrolysis), rat enzyme; type: biochemical; conditions: for inhibition at 0.1 µM: read-out: rFAAH % inhibition at 100 nM
Summary of the method: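 Rat FAAH, E. coli-expressed with groEL-groES chaperone, used as enriched membrane extract with 10 μM AAMCA in 50 mM HEPES, 1 mM EDTA, 0.1% BSA, pH 7.4 (1% DMSO final).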

[3] = human FAAH, read-out: hFAAH IC50

rat Fatty Acid Amide Hydrolase (FAAH), sequence (P97612 30-579): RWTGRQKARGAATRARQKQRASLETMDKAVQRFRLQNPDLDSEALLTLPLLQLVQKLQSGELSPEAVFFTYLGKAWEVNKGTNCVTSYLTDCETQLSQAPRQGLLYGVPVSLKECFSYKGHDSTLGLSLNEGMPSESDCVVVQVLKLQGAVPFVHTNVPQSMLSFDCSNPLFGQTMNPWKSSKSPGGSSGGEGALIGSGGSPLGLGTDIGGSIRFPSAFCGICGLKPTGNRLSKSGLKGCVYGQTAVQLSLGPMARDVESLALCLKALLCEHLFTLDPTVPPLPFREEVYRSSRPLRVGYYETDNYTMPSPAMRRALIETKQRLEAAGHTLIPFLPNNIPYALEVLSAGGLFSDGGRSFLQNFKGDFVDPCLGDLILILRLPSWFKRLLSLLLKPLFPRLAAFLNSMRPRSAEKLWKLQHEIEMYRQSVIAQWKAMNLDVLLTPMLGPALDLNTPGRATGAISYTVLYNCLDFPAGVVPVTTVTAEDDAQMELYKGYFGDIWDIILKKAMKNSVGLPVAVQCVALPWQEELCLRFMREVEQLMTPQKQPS
human Fatty Acid Amide Hydrolase (FAAH), sequence (O00519 30-579): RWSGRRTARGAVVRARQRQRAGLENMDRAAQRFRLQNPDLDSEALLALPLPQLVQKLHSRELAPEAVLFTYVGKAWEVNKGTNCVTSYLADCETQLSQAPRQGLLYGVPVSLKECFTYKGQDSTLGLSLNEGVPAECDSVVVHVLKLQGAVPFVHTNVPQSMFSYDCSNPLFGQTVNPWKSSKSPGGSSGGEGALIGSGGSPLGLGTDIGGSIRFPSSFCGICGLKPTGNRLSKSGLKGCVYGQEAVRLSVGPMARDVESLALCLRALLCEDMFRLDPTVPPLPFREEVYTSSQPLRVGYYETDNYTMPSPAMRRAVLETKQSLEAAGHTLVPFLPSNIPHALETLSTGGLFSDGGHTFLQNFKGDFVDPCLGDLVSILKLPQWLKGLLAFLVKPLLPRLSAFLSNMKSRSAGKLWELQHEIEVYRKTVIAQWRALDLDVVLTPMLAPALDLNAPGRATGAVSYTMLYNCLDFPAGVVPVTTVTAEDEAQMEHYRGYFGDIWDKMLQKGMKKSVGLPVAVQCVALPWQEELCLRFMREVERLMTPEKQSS

SMILES | IC50 [1, 3] [nM] | IC50 ([2]; rat FAAH, read-out: rFAAH IC50) [nM] | IC50 ([1]; read-out: hFAAH IC50) [nM] | other results
Nc1ncc(C(=O)NC2CCC(=Cc3cccc(Oc4ccc(C(F)(F)F)cn4)c3)CC2)cc1Cl (stereo not drawn) [Example 4.A-3, 6-Amino-5-chloro-N-[4-[[3-[[5-(trifluoromethyl)-2-pyridyl]oxy]phenyl]methylene]cyclohexyl]pyridine-3-carboxamide] | – | – | – | IC50 ([1]; hFAAH IC50): 3 nM; IC50 [2]: 16 nM
O=C(NC1CCC(=Cc2cccc(Oc3ccc(C(F)(F)F)cn3)c2)CC1)c1ccc(Cl)nc1 (stereo not drawn) [Example 2.A-22, 6-Chloro-N-[4-[[3-[[5-(trifluoromethyl)-2-pyridyl]oxy]phenyl]methylene]cyclohexyl]pyridine-3-carboxamide] | 5 | 81 | – | –
Nc1ncc(C(=O)NC2CCC(=Cc3cccc(Oc4ccc(C(F)(F)F)cn4)c3)CC2)cn1 (single isomer, unassigned; (-)) [Example 20.A-10] | – | 7 | 0.6 | –
O=C(NC1CCC(=Cc2cccc(Oc3ccc(C(F)(F)F)cn3)c2)CC1)c1cccnn1 (single isomer, unassigned; (-)) [Example 20.A-16, (−)-N-[4-[[3-[[5-(trifluoromethyl)-2-pyridyl]oxy]phenyl]methylene]cyclohexyl]pyridazine-3-carboxamide] | – | 115 | 4 | –
O=C(NC1CCC(=Cc2cccc(Oc3ccc(C(F)(F)F)cn3)c2)CC1)c1c[nH]nc1C(F)(F)F (single isomer, unassigned; (-)) [Example 20.A-8, (−)-3-(Trifluoromethyl)-N-[4-[[3-[[5-(trifluoromethyl)-2-pyridyl]oxy]phenyl]methylene]cyclohexyl]-1H-pyrazole-4-carboxamide] | – | 30 | 1 | –
Nc1cc(C(=O)NC2CCC(=Cc3cccc(Oc4ccc(C(F)(F)F)cn4)c3)CC2)cnc1Cl (stereo not drawn) [Example 10.1, 5-Amino-6-chloro-N-[4-[[3-[[5-(trifluoromethyl)-2-pyridyl]oxy]-phenyl]methylene]cyclohexyl]pyridine-3-carboxamide] | – | – | – | IC50 ([1]; hFAAH IC50): 1 nM; IC50 [2]: 6 nM
Cc1cc(C(=O)NC2CCC(=Cc3cccc(Oc4ccc(C(F)(F)F)cn4)c3)CC2)cnc1N (single isomer, unassigned; (-)) [Example 20.A-6, (−)-6-Amino-5-methyl-N-[4-[[3-[[5-(trifluoromethyl)-2-pyridyl]oxy]phenyl]methylene]cyclohexyl]pyridine-3-carboxamide] | 1 | 10 | – | –
Nc1ccc(C(=O)NC2CCC(=Cc3cccc(Oc4ccc(C(F)(F)F)cn4)c3)CC2)cn1 (stereo not drawn) [Example 2.C-1, 6-Amino-N-[4-[[3-[[5-(trifluoromethyl)-2-pyridyl]oxy]phenyl]methylene]cyclohexyl]pyridine-3-carboxamide] | – | 31 | 5 | –
O=C(NC1CCC(=Cc2cccc(Oc3ccc(C(F)(F)F)cn3)c2)CC1)c1ccc(N2CCCC2)nc1 (stereo not drawn) [Example 5.A-2, 6-Pyrrolidin-1-yl-N-[4-[[3-[[5-(trifluoromethyl)-2-pyridyl]oxy]phenyl]methylene]cyclohexyl]pyridine-3-carboxamide] | – | 28 | – | inhibition at 0.1 µM ([1]; human FAAH): 54%
Cc1n[nH]c(C)c1C(=O)NC1CCC(=Cc2cccc(Oc3ccc(C(F)(F)F)cn3)c2)CC1 (stereo not drawn) [Example 2.A-35, 3,5-Dimethyl-N-[4-[[3-[[5-(trifluoromethyl)-2-pyridyl]oxy]phenyl]methylene]cyclohexyl]-1H-pyrazole-4-carboxamide] | – | – | 29 | inhibition at 0.1 µM ([2]; rat FAAH, 100 nM (tier I)): 38%
O=C(NC1CCC(=Cc2cccc(Oc3ccc(C(F)(F)F)cn3)c2)CC1)c1ccnnc1 (stereo not drawn) [Example 2.A-17, N-[4-[[3-[[5-(Trifluoromethyl)-2-pyridyl]oxy]phenyl]methylene]cyclohexyl]pyridazine-4-carboxamide] | 10 | – | – | inhibition at 0.1 µM ([2]; rat FAAH, 100 nM (tier I)): 14%
Cn1cc(C(=O)NC2CCC(=Cc3cccc(Oc4ccc(C(F)(F)F)cn4)c3)CC2)cn1 (stereo not drawn) [Example 2.A-18, 1-Methyl-N-[4-[[3-[[5-(trifluoromethyl)-2-pyridyl]oxy]phenyl]methylene]cyclohexyl]pyrazole-4-carboxamide] | – | – | – | inhibition at 0.1 µM ([1]; human FAAH): 45%; inhibition at 0.1 µM ([2]; rat FAAH, 100 nM (tier I)): 38%
O=C(Nc1cnccn1)C1CCC(=Cc2cccc(Oc3ccc(C(F)(F)F)cn3)c2)CC1 (stereo not drawn) [Example 1.A-3, N-Pyrazin-2-yl-4-[[3-[[5-(trifluoromethyl)-2-pyridyl]oxy]phenyl]methylene]cyclohexanecarboxamide] | 9 | 44 | – | –
Cc1ccc(C(=O)NC2CCC(=Cc3cccc(Oc4ccc(C(F)(F)F)cn4)c3)CC2)c(C)n1 (stereo not drawn) [Example 2.A-37, 2,6-Dimethyl-N-[4-[[3-[[5-(trifluoromethyl)-2-pyridyl]oxy]phenyl]methylene]cyclohexyl]pyridine-3-carboxamide] | 57 | – | – | rFAAH % inhibition at 100 nM ([2]; rat FAAH, 100 nM (tier I)): No inhibition at 100 nM
O=C(Nc1ncc(Cl)s1)C1CCC(=Cc2cccc(Oc3ccc(C(F)(F)F)cn3)c2)CC1 (stereo not drawn) [Example 1.1, N-(5-Chlorothiazol-2-yl)-4-[[3-[[5-(trifluoromethyl)-2-pyridyl]oxy]phenyl]methylene]cyclohexanecarboxamide] | 16 | 60 | – | –
CN(C)c1ccc(C(=O)NC2CCC(=Cc3cccc(Oc4ccc(C(F)(F)F)cn4)c3)CC2)cn1 (stereo not drawn) [Example 5.1, 6-(Dimethylamino)-N-[4-[[3-[[5-(trifluoromethyl)-2-pyridyl]oxy]-phenyl]methylene]cyclohexyl]pyridine-3-carboxamide] | – | 13 | 7 | –
O=C(NC1CCC(=Cc2cccc(Oc3ccc(C(F)(F)F)cn3)c2)CC1)c1cncnc1 (stereo not drawn) [Example 2.A-12, N-[4-[[3-[[5-(Trifluoromethyl)-2-pyridyl]oxy]phenyl]methylene]cyclohexyl]pyrimidine-5-carboxamide] | – | 100 | 3 | –
O=C(NC1CCC(=Cc2cccc(Oc3ccc(C(F)(F)F)cn3)c2)CC1)c1cnc2[nH]ccc2c1 [Example 2.D-5, N-[4-[[3-[[5-(Trifluoromethyl)-2-pyridyl]oxy]phenyl]methylene]cyclohexyl]-1H-pyrrolo[2,3-b]pyridine-5-carboxamide] | – | 16 | 2 | –
CC(CO)Nc1ccc(C(=O)NC2CCC(=Cc3cccc(Oc4ccc(C(F)(F)F)cn4)c3)CC2)cn1 (stereo not drawn) [Example 5.A-8, 6-[(2-Hydroxy-1-methyl-ethyl)amino]-N-[4-[[3-[[5-(trifluoromethyl)-2-pyridyl]oxy]phenyl]methylene]cyclohexyl]pyridine-3-carboxamide] | 16 | 32 | – | –
Cc1cncc(C(=O)NC2CCC(=Cc3cccc(Oc4ccc(C(F)(F)F)cn4)c3)CC2)c1 (stereo not drawn) [Example 2.A-30, 5-Methyl-N-[4-[[3-[[5-(trifluoromethyl)-2-pyridyl]oxy]phenyl]methylene]cyclohexyl]pyridine-3-carboxamide] | – | 14 | 5 | –
Cc1ccc(C(=O)NC2CCC(=Cc3cccc(Oc4ccc(C(F)(F)F)cn4)c3)CC2)cn1 (stereo not drawn) [Example 2.2, 6-Methyl-N-[4-[[3-[[5-(trifluoromethyl)-2-pyridyl]oxy]phenyl]-methylene]cyclohexyl]pyridine-3-carboxamide] | – | 28 | 5 | –
O=C(NC1CCC(=Cc2cccc(Oc3ccc(C(F)(F)F)cn3)c2)CC1)c1cn[nH]c1 (stereo not drawn) [Example 2.A-9, N-[4-[[3-[[5-(Trifluoromethyl)-2-pyridyl]oxy]phenyl]methylene]cyclohexyl]-1H-pyrazole-4-carboxamide] | 2 | 53 | – | –
O=C(NC1CCC(=Cc2cccc(Oc3ccc(C(F)(F)F)cn3)c2)CC1)c1ccncc1 (stereo not drawn) [Example 2.A-8, N-[4-[[3-[[5-(Trifluoromethyl)-2-pyridyl]oxy]phenyl]methylene]cyclohexyl]pyridine-4-carboxamide] | 14 | – | – | inhibition at 0.1 µM ([2]; rat FAAH, 100 nM (tier I)): 14%
O=C(NC1CCC(=Cc2cccc(Oc3ccc(C(F)(F)F)cn3)c2)CC1)c1c[nH]c2ccccc12 (single isomer, unassigned; (+)) [Example 20.A-17, (+)-N-[4-[[3-[[5-(trifluoromethyl)-2-pyridyl]oxy]phenyl]methylene]cyclohexyl]-1H-indole-3-carboxamide] | – | – | 155 | inhibition at 10 µM ([2]; read-out: rFAAH % inhibition at 10 uM, rat FAAH, 10 uM): 90%
